Data reported in patent US20050171206A1, “Therapeutical use” (priority 2004, published 2005).
“And” between values parts separate entries of the source, which are not always exact repeats. Identical values can stand only once.

Legend:
SMN2 genes = settings: in vitro, cell cultures; cited from earlier work
children with SMA II [1] = test: Joint contractures (Example 2); type: in vivo, human; settings: between baseline and 9 weeks
Description: (§1) Measurements lasted 3 to 5 seconds. The scores were grouped in a leg mega score and arm megascore by adding the best readings for each individual muscle within the subgroup and subdividing this score by the number of muscles examined. Intra-observer variation performed before the implementation of the study was less than 5%. Both myometry and measurement of joint contractures were performed by the same physiotherapist.

[2] = tested on: children with SMA II older than 5 years; test: Forced vital capacity by spirometer (Example 2); type: in vivo, human; set-up: FVC: unit not given here; settings: for FVC: individual children
Description: (§2) The sodium salt of phenylbutyrate (triButyrate®) was administered orally in powder or tablets at 500 mg/kg/d (maximum dose 19 g/d), divided in 5 doses (every 4 hours except for an 8 hours night interval). An intermittent schedule (7 days on and 7 days off) was arbitrarily chosen, similarly to a previously reported schedule for treatment of sickle cell disease. (Atweh G F, Sutton M, Nassif I, Boosalis V, Dover G J, Wallen-stein S, Wright E, McMahon L, Stamatoyannopoulos G, Faller D V, Perrine S P Blood.1999;93:1790-97.) When this dosage was tolerated, patients were advised to continue for 9 weeks (5 weeks on and 4 weeks off).
(§3) The assessment consisted of a detailed clinical physiotherapy evaluation including the Hammersmith functional motor scale and, in children older than 5 years, assessment of muscle strength and of forced vital capacity.
This was measured using a standard spirometer (Spyroanalyser ST-95, Fukuda Sangyo Co, LTD, Philippines) and using the best of three attempts.

[3] = tested on: SMA patients (muscle strength); test: Myometry with hand-held dynamometer, day 0 and day 7 (Example 1); type: in vivo, human
Description: (§4) Six SMA patients (P1-P6) and three parents (M2, M3, F6) were enrolled for a pilot trial. Four patients had SMA type II (P1-P4). P1 is a child who had lost the ability to sit unaided. P3 is […] and P4 and P5 are both […]. Two patients (P5 and P6) had SMA type III. The trial was approved by the Ethical Committee of the Catholic University. A written informed consent was obtained from all patients/parents. triButyrate®, the sodium salt of phenylbutyrate was administered at 500 mg/kg/d (maximum dose 19 g/d), divided in 6 doses(every 4 hours) for 7 days. Blood samples were taken from patients and parents on day 0 (T0, baseline) and on days 1-4 (T1-T4) and 7 (T7) of drug administration, and from 5 healthy untreated controls on 5 consecutive days (T0-T4). Total RNA was extracted by Trizol from leukocytes immediately after hypotonic lysis of samples.
Muscle strength was assessed using a hand-held dynamometer (Citec, CIT Technics BV). (Merlini L, Mazzone E S, Solari A, Morandi L. Muscle Nerve 2002; 26:64-70) Patients were tested independently four times by two raters, and the highest measure of the maximal voluntary isometric contraction was selected. Inter-rater coefficients (ICC) were determined as described by Shrout et al. (Shrout P E, Fleiss J L. Pscychol Bull 1979; 86:420-428)
(§5) F of Fisher, ANOVA and T of Student for independent variables tests were performed to assess statistical significance by using Winstat 4.01 and SPSS 10.0.1 for Windows software. P values <0.05 were accepted as significant.

[4] = i.v. administration, non-human primates; cited from earlier work
[5] = tested on: SMN full length (SMN-fl) transcripts (SMN2 gene expression) in leukocytes; test: SMN full length transcripts in leukocytes by real-time RT-PCR during one week of oral triButyrate (Example 1); type: in vivo, human
Description: as §4
SMN full length (SMN-fl) transcripts were measured by realtime RT-PCR using ABI-PRISM 7700 Sequence Detector System (Applied Biosystems) as described elsewhere. (Andreassi C, Angelozzi C, Tiziano F D, Vitali T, De Vincenzi E, Boninsegna A, Villanova M, Bertini E, Pini A, Neri G, Brahe C. Eur. J. Hum. Genet. 2004; 12:59-65) Transcripts were amplified at least twice in triplicate or quadruplicate. SMN transcript levels were calculated by comparing SMN versus glyceraldehyde-3-phosphate dehydrogenase transcripts, whose expression is not affected by triButyrate®. (Andreassi C, Angelozzi C, Tiziano F D, Vitali T, De Vincenzi E, Boninsegna A, Villanova M, Bertini E, Pini A, Neri G, Brahe C. Eur. J. Hum. Genet. 2004; 12:59-65) The relative amounts of SMN-fl transcripts in samples obtained from treated patients/parents and untreated controls were normalized versus those of T0.
as §5

SMA patients and parents = test: Clinical observations and tolerability, pilot trial (Example 1); type: in vivo, human
Description: as §4
These subjective improvements prompted us to perform myometry in the other four patients on day 0 and 7 (table 1.2).

children with SMA II [6] = test: Side effects (Example 2); type: in vivo, human
Description: The sodium salt of phenylbutyrate (triButyrate®) was administered orally in powder or tablets at 500 mg/kg/d (maximum dose 19 g/d), divided in 5 doses (every 4 hours except for an 8 hours night interval). An intermittent schedule (7 days on and 7 days off) was arbitrarily chosen, similarly to a previously reported schedule for treatment of sickle cell disease.

[7] = cited from earlier work
[8] = tested on: children with SMA II older than 5 years (muscle strength); test: Myometry, hand held electronic myometer (Example 2); type: in vivo, human; set-up: myometry: unit not given here; settings: for myometry: individual children
Description: as §2, §3, §1

[9] = 200 g per person and day; cited from earlier work
[10] = tested on: children with SMA II (motor function); test: Hammersmith functional motor scale, open trial in SMA II children (Example 2); type: in vivo, human; settings: for Hammersmith functional scale score, mean: 10 children, baseline mean 13
Source text: Thirteen patients with SMA II, all with homozygous absence of SMN1, followed at the Bambino Gesu Hospital or at the UILDM centre in Rome were asked to participate in the present prospective open trial. In order to have a relatively homogeneous cohort of patients who could all be tested on the same scale only children with SMA II between 30 months and 12 years were included. Children younger than 30 months were excluded as the Hammersmith scale can only be reliably and consistently performed and scored after this age. (Main M, Kairon H, Mercuri E, Muntoni F. Eur J Paediatr Neurol. 2003;7:155-59.) Children older than 12 were excluded as after this age several complications, such as severe scoliosis and contractures are more frequent. Children who had been part of other pharmacological trials (e.g. salbutamol, creatine) in the year before the present trial started or who had had corrective surgery for scoliosis were also excluded.
as §2, §3
The scale consists of 20 items, each scored on a 3 point scoring system, (2 for unaided, 1 for assistance and 0 for inability). A total score can be achieved by summing the scores for all the individual items. The score can range from 0, if all the activities are failed, to 40, if all the activities are achieved.
All items have to be tested without thoracic braces or leg orthoses. The scale can be completed in a maximum of 15 minutes. (Main M, Kairon H, Mercuri E, Muntoni F. Eur J Paediatr Neurol. 2003;7:155-59.)
The scale was performed by 2 examiners (MP, SM) and each child was always assessed by the same examiner throughout the 3 assessments. Both observers had training sessions with a senior physiotherapist (MM) and the intra and inter-rater reliability was formally assessed in 5 children before starting the trial. In agreement with the previously reported data on intra and inter-observer reliability, these were >95%. (Main M, Kairon H, Mercuri E, Muntoni F. Eur J Paediatr Neurol. 2003;7:155-59.)
The primary measure of efficacy in this trial was the change from baseline to 3 and 9 weeks in motor function as determined by the Hammersmith motor scale. Secondary measures included the change from baseline to 3 and 9 weeks in myometry scores and in FVC in the children older than 5 years. The primary outcome was analysed using repeated measures ANOVA. Statistical significance was determined at p<0.05. An estimate of SD of change in each of the measures considered is presented with 95% confidence intervals. The number of children older than 5 years who could be reliably assessed for myometry and FVC was too small to allow any meaningful statistical analysis for these measures.

SMA patients = settings: published clinical trials; cited from earlier work
[11] = according to recent publications

SMILES: O=C(O)CCCc1ccccc1 [PBA, 4-phenylbutyric acid]
- SMN protein levels (SMN2 genes): effective in enhancing SMN protein levels
- expression of the SMN2 genes (SMN2 genes): effective in increasing the expression of the SMN2 genes
- number of SMN containing nuclear structures (SMN2 genes): effective in enhancing

SMILES: O=C([O-])CCCc1ccccc1.[Na+] [triButyrate®, Sodium 4-phenylbutyrate]
- major joint's ranges (hips, knees, hamstrings, tendon Achilles and elbows) (children with SMA II [1]): no difference
- Forced vital capacity, patients with increase ([2]; 4 patients older than 5 years): clear increase in 3 of the 4
- FVC ([2]; T1, 3 weeks): 0.87 and 1.15 and 0.75 and 1.70
- FVC ([2]; T2, 9 weeks): 1.18 and 1.23 and 1.22 and 1.74
- Foot dorsiflexion ([3]; T7 = day 7, P2, P3, P4 (type II), P6 (type III)): 15 (0.6) Newtons and 9 (0.81) Newtons and 11 (0.81) Newtons and 11 (0.9) Newtons
- Arm strength ([3]; patients P3 and P4, less obvious than leg strength): increased
- leg muscle strength on day 7 compared to baseline ([3]; three type II patients (P2-4), statistically significant in P3 and P4): increase in leg muscle strength
- muscle performance by myometry ([3]; type III case (P6), reduced dosage): no changes in muscle performance
- penetration into the cerebrospinal fluid (CSF) [4]: penetrates into the cerebrospinal fluid
- relative SMN-fl transcript levels during administration compared to baseline ([5]; all patients, one or more blood samples): significant increase
- Percent SMN-fl transcripts variation versus T0, T1 mean(+-SD) ([5]; day 1 of 500 mg/kg/d oral, leukocytes, individual patients P1-P6 and parents M2, M3, F6, 500 mg/kg/day): +53 (0.1) % and −1 (0.0) % and +54 (0.2) % and +68 (0.0) % and +65 (0.1) % and +117 (1.0) % and +280 (0.7) % and +73 (0.0) % and +432 (0.2) %
- Percent SMN-fl transcripts variation versus T0, T2 mean(+-SD) ([5]; day 2 of 500 mg/kg/d oral, leukocytes, individual patients/parents, 500 mg/kg/day): +184 (0.6) % and +35 (0.3) % and +25 (0.1) % and +14 (0.0) % and −2 (0.0) % and +96 (0.1) % and +27 (0.0) % and +63 (0.1) %
- Percent SMN-fl transcripts variation versus T0, T3 mean(+-SD) ([5]; day 3 of 500 mg/kg/d oral, leukocytes, individual patients/parents, 500 mg/kg/day): +7 (0.2) % and +131 (0.5) % and +116 (0.0) % and −37 (0.0) % and +197 (0.7) % and −15 (0.1) % and +21 (0.1) % and +82 (0.2) %
- Percent SMN-fl transcripts variation versus T0, T4 mean(+-SD) ([5]; day 4 of 500 mg/kg/d oral, leukocytes, individual patients/parents, 500 mg/kg/day): +120 (0.4) % and −3 (0.0) % and +21 (0.0) % and +156 (0.2) % and +363 (0.6) % and +387 (0.9) % and −18 (0.2) % and +129 (0.3) % and +190 (0.5) %
- Percent SMN-fl transcripts variation versus T0, T7 mean(+-SD) ([5]; day 7 of 500 mg/kg/d oral, leukocytes, individual patients/parents, 500 mg/kg/day): +827 (1.9) % and +155 (0.1) % and −15 (0.4) % and +190 (0.2) % and +71 (0.3) % and +333 (0.5) % and +56 (0.2) %
- increase in SMN-fl transcripts in at least one blood sample during treatment ([5]; in all patients): more than 100%
- adverse events (SMA patients and parents; P6 on day 2 at 18 g/d, resolved after reducing to 12 g/d): dizziness and tinnitus
- tolerability (SMA patients and parents; all subjects, 500 mg/kg/d for 7 days): tolerated the drug well except for P6
- Full blood counts and liver function tests (SMA patients and parents; all subjects, days 0 and 7): did not show significant changes
- head and trunk control (SMA patients and parents; patient P1, severe type II phenotype): slight improvement in head and trunk control
- hand tremor (SMA patients and parents; patient P5 (type III), day 3 of treatment, later complete absence lasting 4 days after end of trial): reduction of hand tremor
- expression of the SMN2 genes (SMN2 genes): can increase SMN2 gene expression in vitro
- tolerability (children with SMA II [6]; 500 mg/kg/d oral, intermittent, 9 weeks): generally well tolerated
- stomach ache (children with SMA II [6]; after the second dose, did not recur): Three very young children complained of stomach ache
- children who found the taste of the drug very unpleasant (children with SMA II [6]; children who completed the trial): Eight of the 10
- children who reported an unpleasant odour when sweating (children with SMA II [6]; of the eight who found the taste unpleasant): seven
- adverse event leading to discontinuation (children with SMA II [6]; one child, after the second week of treatment started): skin rash
- metabolised to butyrate [7, 11]: ~25%
- metabolised to sodium phenylacetate [7, 11]: approximately 75%
- half-life ([7]; in vivo): 48 to 60 min
- myometry, patients with increase ([8]; 4 patients older than 5 years): clear increase in 3 of the 4
- myometry ([8]; T1, 3 weeks): 0.18 and 0.41 and 0.09 and 0.38
- myometry ([8]; T2, 9 weeks): 0.17 and 0.45 and 0.09 and 0.46
- side-effect [9]: increased blood pressure
- motor function in the treated children ([10]; 9 weeks, 7 days on and 7 days off): significant increase in motor function
- children in the study group with an increase in functional scores ([10]; 9 weeks, intermittent regimen): nine out of ten
- Hammersmith functional scale score, mean ([10]; T1, 3 weeks after treatment was started): 14.8
- Hammersmith functional scale score, mean ([10]; T2, 9 weeks after treatment was started): 17 and 16.6
- children with an increase in functional scores of more than 2 points ([10]; of the ten children, 9 weeks): 6

SMILES: NCC1(CC(=O)O)CCCCC1 [gabapentin]
- clinical outcome in SMA patients (SMA patients): did not show improvement of the symptoms

SMILES: CCCC(=O)[O-].[Na+] [sodium butyrate]
- expression of the SMN2 genes (SMN2 genes): can increase SMN2 gene expression in vitro

SMILES: CC(C)(C)NCC(O)c1ccc(O)c(CO)c1 (stereo not shown) [albuterol]
- clinical outcome in SMA patients (SMA patients): improvement in clinical symptoms

SMILES: Nc1nc2ccc(OC(F)(F)F)cc2s1 [riluzole]
- clinical outcome in SMA patients (SMA patients): no statistically significant improvement
